Assay results from paper PMC12306736 (PLOS Genetics, 2025).
Read-outs that look alike come from different tables or passages of the source.

Tests used:
[1] = tested on: B. ovis; assay: microbe, parasite or virus in culture; assay type: cell-based, Brucella ovis; details: for IC50: Brucella ovis
[2] = tested on: THP-1 cells; details: human
[3] = tested on: B. ovis; assay: microbe, parasite or virus in culture; assay type: cell-based, Brucella ovis; details: for IC50: Brucella ovis; remark: listed apart in the source
[4] = tested on: B. ovis; assay type: cell-based, Brucella ovis
[5] = tested on: B. abortus; assay type: cell-based, Brucella abortus
[6] = tested on: B. ovis; assay type: cell-based, Brucella ovis; remark: listed apart in the source
[7] = tested on: B. abortus; assay type: cell-based, Brucella abortus; remark: listed apart in the source
[8] = tested on: B. ovis; assay type: cell-based, Brucella ovis; remark: listed apart in the source
[9] = tested on: B. abortus; assay: microbe, parasite or virus in culture; assay type: cell-based; details: Brucella abortus, THP-1, 48 h, read-out: IC50, intracellular B. abortus in THP-1 cells
[10] = tested on: B. abortus; assay type: cell-based, Brucella abortus; remark: listed apart in the source
[11] = tested on: THP-1 macrophage-like cells; assay type: cell-based, human
[12] = tested on: B. abortus; assay type: cell-based
[13] = tested on: B. ovis; assay type: cell-based, Brucella ovis; remark: listed apart in the source
[14] = THP-1, read-out: Intracellular IC50
[15] = THP-1, 48 h, read-out: IC50 for inhibiting intracellular growth of B. ovis
[16] = 48 h, read-out: Axenic B. ovis IC50 (Fig 1B)

In the case of `N[C@@H]1C[C@H]1c1ccccc1` (racemic) [Tranylcypromine], the IC50 [1, 14] is reported as over 50 µM, the CC50 [2] is reported as over 50 µM and the IC50 ([3]; read-out: Axenic IC50) is reported as over 50 µM.
`O=C1CCc2ccc(OCCCCN3CCN(c4cccc(Cl)c4Cl)CC3)cc2N1` [Aripiprazole] gave a CC50 [2] of 12 µM.
In the case of `c1ccc(-c2ccc(C(c3ccccc3)n3ccnc3)cc2)cc1` (stereo not drawn) [Bifonazole], the “Outcome of validation assays” value [1] is reported as “inhibitors of intracellular replication that were not toxic to host cells”, the IC50 [1, 14] is reported as 14 µM and the CC50 [2] is reported as over 50 µM. It also gave an IC50 ([3]; read-out: Axenic IC50) of 4 µM.
In the case of `C[C@H](CCC(=O)NCCC[N+](C)(C)CCCS(=O)(=O)[O-])[C@H]1CC[C@H]2[C@@H]3[C@H](O)C[C@@H]4C[C@H](O)CC[C@]4(C)[C@H]3C[C@H](O)[C@]12C` [CHAPS], the “Sensitivity of wild-type B. ovis on TSA blood plates” value (“Sensitivity of wild-type B. ovis” for short) [4] is reported as “highly sensitive” and the “Effect of bepE disruption on B. abortus sensitivity on solid media” value (“Effect of bepE disruption” for short) [5] is reported as “did not affect sensitivity”.
For `COCCOC(=O)C1=C(C)NC(C)=C(C(=O)OC/C=C/c2ccccc2)C1c1cccc([N+](=O)[O-])c1` (stereo not drawn) [Cilnidipine], the “Outcome of validation assays” value [1] was “inhibitors of intracellular replication that were not toxic to host cells”, the IC50 [1, 15] was 2.5 µM and the IC50 [1, 14] was 2 µM. The “Axenic inhibition in high-throughput screen” value [6] was under 35%, the “Sensitivity of WT B. abortus in axenic conditions” value [7] was “insensitive” and the “Sensitivity of ∆bepE B. abortus in axenic conditions” value [7] was “insensitive”. For the same compound, the “Effect of bepE disruption” value [5] was “did not affect sensitivity”, the CC50 [2] was over 50 µM and the “THP-1 host cell viability” value [2] was “does not affect THP-1 host cell viability”. The “Growth of WT B. ovis in liquid culture” value [8] was “failed to grow over 72 h”, the IC50 [9] was 13.5 µM and the “Concentrations giving complete growth inhibition of axenic B. ovis” value [3] was at least 10 µM. The IC50 [3, 16] was 5.09 µM, the IC50 ([3]; 48 h, read-out: Axenic IC50, B. ovis) was about 5 µM and the IC50 ([3]; read-out: Axenic IC50) was 5 µM. The “Effect of bepE deletion on B. abortus sensitivity in THP-1 cells” value [10] was “increase sensitivity”.
`OCCN(CCO)c1nc(N2CCCCC2)c2nc(N(CCO)CCO)nc(N3CCCCC3)c2n1` [Dipyridamole] was tested, and the IC50 [1, 14] was over 50 µM, the CC50 [2] was 41 µM and the IC50 ([3]; read-out: Axenic IC50) was over 50 µM.
`CCCCN(CCCC)CCC(O)c1cc2c(Cl)cc(Cl)cc2c2cc(C(F)(F)F)ccc12` (stereo not drawn) [Halofantrine] was tested, and the IC50 [1, 14] was over 50 µM, the CC50 [2] was over 50 µM and the IC50 ([3]; read-out: Axenic IC50) was 11 µM.
`COc1ccc(CN2CCN(C(c3ccc(F)cc3)c3ccc(F)cc3)CC2)c(OC)c1OC` [Lomerizine] was tested, and the “Outcome of validation assays” value [1] was “inhibitors of intracellular replication that were not toxic to host cells”, the IC50 [1, 14] was 9 µM and the CC50 [2] was 50 µM. For the same compound, the IC50 ([3]; read-out: Axenic IC50) was over 50 µM.
In the case of `COC(=O)C1=C(C)NC(C)=C(C(=O)OCCN(C)Cc2ccccc2)C1c1cccc([N+](=O)[O-])c1` (stereo not drawn) [Nicardipine], the “Outcome of validation assays” value [1] is reported as “inhibitors of intracellular replication that were not toxic to host cells”, the IC50 [1, 15] is reported as 2.3 µM and the IC50 [1, 14] is reported as 2 µM. For the same compound, the “Increase in intracellular calcium level” value [11] was 20–40%, the “Increase in intracellular manganese level” value [11] was 20–40% and the “Other metal levels in THP-1 cells” value [11] was “Most metal levels remained unchanged”. The “Sensitivity of WT B. abortus in axenic conditions” value [7] was “insensitive”, the “Sensitivity of ∆bepE B. abortus in axenic conditions” value [7] was “insensitive” and the “Effect of bepE disruption” value [5] was “did not affect sensitivity”. The CC50 [2] was 49 µM, the “THP-1 host cell viability” value [2] was “does not affect THP-1 host cell viability” and the “Growth of WT B. ovis in liquid culture” value [8] was “modest lag”. The IC50 [9] was 4.4 µM, the “Effect on terminal optical density of axenic B. ovis” value [3] was “no effect on the terminal optical density at any concentration tested” and the IC50 [3, 16] was over 25 µM. The IC50 ([3]; read-out: Axenic IC50) was over 50 µM, the “Effect of bepE deletion on B. abortus sensitivity in THP-1 cells” value [10] was “did not alter sensitivity” and the “Wild-type B. abortus CFUs recovered from treated THP-1 cells compared to untreated controls” value [10] was “significantly fewer”.
For `CC1(C)S[C@@H]2[C@H](NC(=O)Cc3ccccc3)C(=O)N2[C@H]1C(=O)O` [Penicillin G], the “Differential growth of B. abortus WT and ΔbepE in Biolog phenotype microarray” value [12] was “markedly inhibiting ΔbepE but not WT growth” and the “Increase in susceptibility of B. abortus on deletion of bepE (spot-titration on agar)” value [5] was “approximately five”.
`CCOc1ccc(NC(C)=O)cc1` [Phenacetin] showed an IC50 [1, 14] of over 50 µM, a CC50 [2] of over 50 µM and an IC50 ([3]; read-out: Axenic IC50) of over 50 µM.
For `CC(=O)SCC(Cc1ccccc1)C(=O)NCC(=O)OCc1ccccc1` (stereo not drawn) [Racecadotril], the IC50 [1, 14] was over 50 µM, the CC50 [2] was over 50 µM and the IC50 ([3]; read-out: Axenic IC50) was over 50 µM.
In the case of `CCCCCCCCCCCCOS(=O)(=O)[O-].[Na+]` [SDS, sodium dodecyl sulfate], the “Sensitivity of wild-type B. ovis” value [4] is reported as “highly sensitive”.
`CC1(C)S[C@@H]2[C@H](NC(=O)C(C(=O)O)c3ccccc3)C(=O)N2[C@H]1C(=O)O` (stereo partly drawn) [carbenicillin] was tested, and the “Sensitivity of wild-type B. ovis” value [4] was “moderately sensitive”.
For `COC(=O)C1=C(C)NC(C)=C(C(=O)OC)C1c1ccccc1[N+](=O)[O-]` [nifedipine], the “Hit status in B. ovis intracellular screen” value [13] was “neither compound emerged as a hit”.
In the case of `COc1ccc(CCN(C)CCCC(C#N)(c2ccc(OC)c(OC)c2)C(C)C)cc1OC` (stereo not drawn) [verapamil], the “Hit status in B. ovis intracellular screen” value [13] is reported as “neither compound emerged as a hit”.
